Reference: publication PMC12571268, “Functional expression of a Mo-dependent formate dehydrogenase in Escherichia coli under aerobic conditions” (PLOS One, 2025)

Biological target: T1, TsFDH (formate dehydrogenase of Thiobacillus sp. KNK65MA) (Thiobacillus sp. KNK65MA, UniProt Q76EB7)
T1 construct: gene fdh65MA; full-length synthetic gene codon-optimized for E. coli on pZE plasmid pGEN1395 in E. coli delta-lpd; clarified lysate; metal-independent
T1 sequence (Q76EB7 1-401): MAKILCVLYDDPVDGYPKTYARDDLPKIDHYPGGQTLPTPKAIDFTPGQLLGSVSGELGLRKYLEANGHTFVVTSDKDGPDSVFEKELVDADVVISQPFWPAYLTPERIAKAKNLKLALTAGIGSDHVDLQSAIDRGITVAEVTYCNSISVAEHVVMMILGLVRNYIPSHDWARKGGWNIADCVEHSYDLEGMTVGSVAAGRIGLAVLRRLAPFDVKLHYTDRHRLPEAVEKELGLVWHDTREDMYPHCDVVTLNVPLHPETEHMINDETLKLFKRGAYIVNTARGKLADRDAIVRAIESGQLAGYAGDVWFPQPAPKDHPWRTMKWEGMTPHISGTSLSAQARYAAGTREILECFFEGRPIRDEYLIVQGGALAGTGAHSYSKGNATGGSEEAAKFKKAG
Test: NADH formation at […] nm in clarified lysate, blank without formate subtracted
Format: biochemical
Conditions: 100 mM formate, 5 mM NAD+, 100 mM Tris pH 9.0; plasmid-free strains as control

## O=CO [formate]
  NADH formation at 340 nm in clarified lysate, blank without formate subtracted: lysates of the strains containing the FDH from Thiobacillus yielded higher specific activity
